Converted amounts (≈) assume the structure as drawn.
Legend:
Format in all cases: cell-based
[1] = tested on: Staphylococcus aureus 209p; assay: Minimal inhibitory concentration; details: I A: Staphylococcus aureus 209p; read-out: Minimal inhibitory concentration
Text: (§1) Minimal inhibitory concentrations of various microorganisms mcg/ml
1 A Staphylococcus aureus 209p

[2] = tested on: Staphylococcus aureus (CP and PC resistant); assay: Minimal inhibitory concentration; details: I B: Staphylococcus aureus (CP and PC resistant)
Text: as §1
1 B Staphylococcus aureus

E. coli NIHJ = assay: Minimal inhibitory concentration; details: Escherichia coli; II A: E. coli NIHJ
Text: as §1

Proteus vulgaris = assay: Minimal inhibitory concentration; details: V: Proteus vulgaris; read-out: Minimal inhibitory concentration
Text: as §1

[3] = tested on: E. coli 609 (CER resistant); assay: Minimal inhibitory concentration; details: Escherichia coli; II B: E. coli 609 (CER resistant); read-out: Minimal inhibitory concentration
Text: as §1
II B E. coli 609 (CER resistant)

[4] = tested on: Shigella flexneri Komagome; assay: Minimal inhibitory concentration; details: III: Shigella flexneri Komagome; read-out: Minimal inhibitory concentration
Text: as §1
III Shigella flexneri Komagome

Klebsiella neumoniae 806 = assay: Minimal inhibitory concentration; details: IV A: Klebsiella neumoniae 806; read-out: Minimal inhibitory concentration
Text: as §1
IV A Klebsiella neumoniae 806

[5] = tested on: Klebsiella neumoniae 846 (CER resistant); assay: Minimal inhibitory concentration; details: IV B: Klebsiella neumoniae 846 (CER resistant)
Text: as §1
IV B Klebsiella neumoniae 846 (CER resistant)

[6] = tested on: Salmonella enteritidis Gaertner; assay: Minimal inhibitory concentration; details: Salmonella enterica; VI: Salmonella enteritidis Gaertner; read-out: Minimal inhibitory concentration
Text: as §1
VI Salmonella enteritidis Gaertner

[7] = tested on: broad pathogenic microorganisms; assay: antimicrobial activity; details: result in words

**Q.** Which MIC [1] does the source give for CO[C@@]1(NC(=O)CSc2nncs2)C(=O)N2C(C(=O)O)=C(CSc3nnnn3C)CS[C@@H]21 [7β-(1,3,4-thiadiazol-2-yl)thioacetamido-7α-methoxy-3-(1-methyl-1H-tetrazol-5-yl)thiomethyl-3-cephem-4-carboxylic acid] here?
**A.** 0.4 µg/mL (≈ 0.774 µM)

**Q.** What about the MIC [2] of the same compound?
**A.** 0.8 µg/mL (≈ 1.55 µM)

**Q.** What about the MIC (E. coli NIHJ) of the same compound?
**A.** 1.5 µg/mL (≈ 2.9 µM)

**Q.** And the MIC (Proteus vulgaris)?
**A.** 3.1 µg/mL (≈ 6 µM)

**Q.** And the MIC [3]?
**A.** 1.5 µg/mL (≈ 2.9 µM)

**Q.** What about the MIC [4] of the same compound?
**A.** 1.5 µg/mL (≈ 2.9 µM)

**Q.** What about the MIC (Klebsiella neumoniae 806) of the same compound?
**A.** 1.5 µg/mL (≈ 2.9 µM)

**Q.** And the MIC [5]?
**A.** > 200 µg/mL

**Q.** What about the MIC [6] of the same compound?
**A.** 0.8 µg/mL (≈ 1.55 µM)

**Q.** And the “antimicrobial activity against broad pathogenic microorganisms” value (from here on “antimicrobial activity”) [7]?
**A.** excellent antimicrobial activity

**Q.** CO[C@@]1(NC(=O)CSc2ncc[nH]2)C(=O)N2C(C(=O)O)=C(COC(N)=O)CS[C@@H]21 [7β-(imidazol-2-yl)thioacetamido-7α-methoxy-3-carbamoyloxymethyl-3-cephem-4-carboxylic acid] was tested. Which MIC [1] did it give?
**A.** ≤ 0.1 µg/mL

**Q.** And the MIC [2]?
**A.** 0.8 µg/mL (≈ 1.8 µM)

**Q.** What about the MIC (E. coli NIHJ) of the same compound?
**A.** 1.5 µg/mL (≈ 3.38 µM)

**Q.** What about the MIC (Proteus vulgaris) of the same compound?
**A.** 6.2 µg/mL (≈ 14 µM)

**Q.** And the MIC [3]?
**A.** 3.1 µg/mL (≈ 6.99 µM)

**Q.** What about the MIC [4] of the same compound?
**A.** 3.1 µg/mL (≈ 6.99 µM)

**Q.** And the MIC (Klebsiella neumoniae 806)?
**A.** 3.1 µg/mL (≈ 6.99 µM)

**Q.** What about the MIC [5] of the same compound?
**A.** > 200 µg/mL

**Q.** What about the MIC [6] of the same compound?
**A.** 1.5 µg/mL (≈ 3.38 µM)

**Q.** And the “antimicrobial activity” value [7]?
**A.** excellent antimicrobial activity

**Q.** Which MIC [1] does the source give for CO[C@@]1(NC(=O)CSc2nnc(C)s2)C(=O)N2C(C(=O)O)=C(CSc3nnnn3C)CS[C@@H]21 [7β-(5-methyl-1,3,4-thiadiazol-2-yl)thioacetamido-7α-methoxy-3-(1-methyl-1H-tetrazol-5-yl)thiomethyl-3-cephem-4-carboxylic acid] here?
**A.** 0.4 µg/mL (≈ 0.754 µM)

**Q.** And the MIC [2]?
**A.** 1.5 µg/mL (≈ 2.83 µM)

**Q.** What about the MIC (E. coli NIHJ) of the same compound?
**A.** 12.5 µg/mL (≈ 23.6 µM)

**Q.** And the MIC (Proteus vulgaris)?
**A.** 3.1 µg/mL (≈ 5.84 µM)

**Q.** And the MIC [3]?
**A.** 12.5 µg/mL (≈ 23.6 µM)

**Q.** What about the MIC [4] of the same compound?
**A.** 6.2 µg/mL (≈ 11.7 µM)

**Q.** And the MIC (Klebsiella neumoniae 806)?
**A.** 12.5 µg/mL (≈ 23.6 µM)

**Q.** And the MIC [5]?
**A.** 400 µg/mL (≈ 754 µM)

**Q.** And the MIC [6]?
**A.** 1.5 µg/mL (≈ 2.83 µM)

**Q.** And the “antimicrobial activity” value [7]?
**A.** excellent antimicrobial activity

**Q.** With CO[C@@]1(NC(=O)CSc2nncs2)C(=O)N2C(C(=O)O)=C(COC(N)=O)CS[C@@H]21 [7β-(1,3,4-thiadiazol-2-yl)thioacetamido-7α-methoxy-3-carbamoyloxymethyl-3-cephem-4-carboxylic acid] as the compound, how does the MIC [1] read?
**A.** 0.4 µg/mL (≈ 0.867 µM)

**Q.** What about the MIC [2] of the same compound?
**A.** 1.5 µg/mL (≈ 3.25 µM)

**Q.** What about the MIC (E. coli NIHJ) of the same compound?
**A.** 3.1 µg/mL (≈ 6.72 µM)

**Q.** And the MIC (Proteus vulgaris)?
**A.** 6.2 µg/mL (≈ 13.4 µM)

**Q.** What about the MIC [3] of the same compound?
**A.** 3.1 µg/mL (≈ 6.72 µM)

**Q.** What about the MIC [4] of the same compound?
**A.** 3.1 µg/mL (≈ 6.72 µM)

**Q.** And the MIC (Klebsiella neumoniae 806)?
**A.** 3.1 µg/mL (≈ 6.72 µM)

**Q.** What about the MIC [5] of the same compound?
**A.** > 400 µg/mL

**Q.** What about the MIC [6] of the same compound?
**A.** 1.5 µg/mL (≈ 3.25 µM)

**Q.** What about the “antimicrobial activity” value [7] of the same compound?
**A.** excellent antimicrobial activity
